The text below walks through data of patent US8207221B2, “Crystalline polymorphs of a CXC-chemokine receptor ligand” (Schering Corporation, priority 2004, dated 2012).

The structures appear in SMILES notation.

The test system of this experiment is CXC-chemokine receptor. As to the kind of experiment: activity as a CXC-chemokine receptor ligand. Conditions: qualitative statement, no method or figures given.

In the case of `CC[C@@H](Nc1c(Nc2cccc(C(=O)N(C)C)c2O)c(=O)c1=O)c1ccc(C)o1` [Anhydrous Compound A], the “activity as a CXC-chemokine receptor ligand” value is reported as “particularly active”. As to `CC[C@@H](Nc1c(Nc2cccc(C(=O)N(C)C)c2O)c(=O)c1=O)c1ccc(C)o1` [monohydrate form of Compound A], the “activity as a CXC-chemokine receptor ligand” value was “substantially similar activity”.
